Assay results: patent US4845093A, “N-benzoyl-N'-pyridazinyloxyphenyl urea compounds, and antitumorous compositions containing them, and process for their preparation” (Ishihara Sangyo Kaisha Ltd., priority 1984, dated 1989)
Read-outs that look alike come from different tables or passages of the source.

What was measured:
p-388 leukemia cells [1] = test: Antitumour activity, P-388 leukemia in BDF1 mice, intraperitoneal-intraperitoneal (Test Example 1); type: in vivo; conditions: Mus musculus, P388, ip, 720 h, read-out: ILS (Increase Life Span); for ILS at 200 mg/kg: 200 mg/kg/day i.p.; for ILS at 400 mg/kg: 400 mg/kg/day i.p.
Experimental: To BDF1 mice, p-388 leukemia cells were intraperitoneally inoculated in an amount of 1×10^6 cells/mouse. A test drug was intraperitoneally administered twice, i.e. one day and four days after the inoculation. […] The increase life span ILS (%)^* was obtained with the number of survival days of mice of the control group to which a physiological saline was administered, being evaluated as 100. The drugs were dispersions obtained by adding small amounts of surfactants (e.g. Tween-80) to the test compounds.
*ILS(%): Increase Life Span, calculated in accordance with the following
formula: ILS(%) = MST - 100, where MST is the ratio of median survival
time of test and control animals.

[2] = Acute toxicity in ddY mice, intraperitoneal; conditions: mouse, in vivo, ip, ddY mice (10 animals), formulated per Formulation Example 4
Experimental: To ddY mice (10 animals), a drug containing one of Compound Nos. 1-7 and 9-13 of the present invention formulated in accordance with Formulation Example 4 was intraperitoneally administered, and the LD50 value was measured and found to be at least 100 mg/kg in each case, and at least 50 mg/kg in the case of Compound Nos. 8 and 14 of the present invention.
(§1) The Compound No. 1 of the present invention was preliminarily pulverized by a centrifugal pulverizer. On the other hand, 5 parts by weight of polyoxyethylene (60) hardened castor oil, 0.2 part by weight of silicone and 0.3 part by weight of a polyoxyethylene-polyoxypropylene block polymer were added to 79.5 parts by weight of a physiological saline to obtain an aqueous solution, to which 10 parts by weight of the above pulverized Compound No. 1 of the present invention was added. The mixture was pulverized in a wet system by a sand mill using glass beads (80% of particles having a particle size of not larger than 2 μm). Then, 5 parts by weight of xanthane gum (2% solution) was added thereto to obtain an aqueous suspension.

p-388 leukemia cells [3] = test: Antitumour activity, P-388 leukemia in BDF1 mice, intraperitoneal-oral (Test Example 2); type: in vivo; conditions: one and four days after i.p. inoculation, Formulation Example 4
Text: To BDF1 mice, p-388 leukemia cells were intraperitoneally inoculated in an amount of 1×10^6 cells/mouse. A test drug was orally administered twice i.e. one day and four days after the inoculation. […] The test drugs and comparative drugs were formulated in accordance with Formulation Example 4 given hereinafter.
*ILS(%), **Comparative Compound No. 1 and ***Comparative Compound No. 2
are the same as mentioned above in the notes of Table 1.
as §1

[4] = 100 mg/kg/day i.p., one and four days after i.p. inoculation, 30 days observation
[5] = one and four days after i.p. inoculation, 30 days observation

| SMILES | LD50 [2] [mg/kg] | ILS at 200 mg/kg (p-388 leukemia cells [1]; [5]) [%] | also measured |
| --- | --- | --- | --- |
| O=C(NC(=O)c1ccccc1[N+](=O)[O-])Nc1ccc(Oc2ccc(I)nn2)c(Cl)c1 [Compound No. 3, N-(2-nitrobenzoyl)-N'-[3-chloro-4-(6-iodo-3-pyridazinyloxy)phenyl]urea] | ≥ 100 |  | ILS at 100 mg/kg (p-388 leukemia cells [1]; [4]): 92% |
| O=C(NC(=O)c1c(Cl)cccc1Cl)Nc1ccc(Oc2ccc(Cl)nn2)c(Cl)c1 [Comparative Compound No. 2, N--(2,6dichlorobenzoyl)-N'--[3chloro-4-(3-chloro-6-pyridazinyloxy)phenyl]rea, reference compound] |  | -3 | ILS (Increase Life Span) (p-388 leukemia cells [3]; 800 mg/kg/day oral): 0%; ILS at 400 mg/kg (p-388 leukemia cells [1]; [5]): 5% |
| O=C(NC(=O)c1ccccc1[N+](=O)[O-])Nc1ccc(Oc2ccc(Br)nn2)c(Cl)c1 [Compound No. 1, N-(2-nitrobenzoyl)-N'-[4-(6-bromo-3-pyridazinyloxy)3-chlorophenyl]urea] | ≥ 100 | 178 | ILS (Increase Life Span) (p-388 leukemia cells [3]; 200 mg/kg/day oral): 58% |
| O=C(NC(=O)c1ccccc1[N+](=O)[O-])Nc1ccc(Oc2ccc(C(F)(F)F)nn2)c(Cl)c1 [Compound No. 5, N-(2-nitrobenzoyl)-N'-[3-chloro-4-(6-trifluoro-methyl-3-pyridazinyloxy)phenyl]urea] | ≥ 100 | 75 |  |
| O=C(NC(=O)c1ccc([N+](=O)[O-])cc1[N+](=O)[O-])Nc1ccc(Oc2ccc(Br)nn2)c(Cl)c1 [Compound No. 11, N-(2,4-dinitrobenzoyl)-N'-[4-(6-bromo-3-pyridazinyloxy)-3-chlorophenyl]urea] | ≥ 100 |  | ILS at 100 mg/kg (p-388 leukemia cells [1]): 102% |
| O=C(NC(=O)c1ccccc1[N+](=O)[O-])Nc1ccc(Oc2cccnn2)c(Cl)c1 [Compound No. 4, N-(2-nitrobenzoyl)-N'-[3-chloro-4-(3-pyridazinyloxy)phenyl]urea] | ≥ 100 | 70 |  |
| O=C(NC(=O)c1ccc([N+](=O)[O-])cc1[N+](=O)[O-])Nc1ccc(Oc2ccc(Cl)nn2)c(C(F)(F)F)c1 [Compound No. 14, N-(2,4-dinitrobenzoyl)-N'-[4-(6-chloro-3-pyridazinyloxy)-3-trifluoromethylphenyl]urea] | ≥ 50 |  |  |
| O=c1[nH]cc(F)c(=O)[nH]1 [5-Fluorouracil, reference compound] |  |  | ILS at 60 mg/kg (p-388 leukemia cells [1]): 85% |
| O=C(NC(=O)c1ccccc1Cl)Nc1ccc(Oc2ccc(Cl)nn2)c(Cl)c1 [Comparative Compound No. 1, N--(2chlorobenzoyl)-N'--[3chloro-4-(3-chloro-6-pyridazinyloxy)phenyl]urea, reference compound] |  | 24 | ILS (Increase Life Span) (p-388 leukemia cells [3]; 800 mg/kg/day oral): 10%; ILS at 400 mg/kg (p-388 leukemia cells [1]; [5]): 42% |
| Cc1cc(NC(=O)NC(=O)c2ccccc2[N+](=O)[O-])ccc1Oc1ccc(Cl)nn1 [Compound No. 13, N-(2-nitrobenzoyl)-N'-[4-(6-chloro-3-pyridazinyloxy)-3-methylphenyl]urea] | ≥ 100 |  |  |
| O=C(NC(=O)c1ccccc1[N+](=O)[O-])Nc1ccc(Oc2ccc(Br)nn2)c(Br)c1 [Compound No. 6, N-(2-nitrobenzoyl)-N'-[3-bromo-4-(6-bromo-3-pyridazinyloxy)phenyl]urea] | ≥ 100 |  |  |
| O=C(NC(=O)c1ccccc1Cl)Nc1ccc(Oc2ccc(Cl)nn2)c(C(F)(F)F)c1 [Compound No. 12, N-(2-chlorobenzoyl)-N'-[4-(6-chloro-3-pyridazinyloxy)-3-trifluoromethylphenyl]urea] | ≥ 100 |  |  |
| O=C(NC(=O)c1ccccc1[N+](=O)[O-])Nc1ccc(Oc2ccc(Cl)nn2)c(Cl)c1 [Compound No. 2, N-(2-nitrobenzoyl)-N'-[3-chloro-4-(6-chloro-3pyridazinyloxy)phenyl]urea] | ≥ 100 | 71 |  |
| O=C(NC(=O)c1ccccc1[N+](=O)[O-])Nc1ccc(Oc2ccc(Br)nn2)cc1 [Compound No. 7, N-(2-nitrobenzoyl)-N'-[4-(6-bromo-3-pyridazinyloxy)phenyl]urea] | ≥ 100 |  | ILS at 100 mg/kg (p-388 leukemia cells [1]): > 120% |
| O=C(NC(=O)c1ccc(Cl)cc1[N+](=O)[O-])Nc1ccc(Oc2ccc(Br)nn2)c(Cl)c1 [Compound No. 10, N-(4-chloro-2-nitrobenzoyl)-N'-[4-(6-bromo-3-pyridazinyloxy)-3-chlorophenyl]urea] | ≥ 100 |  | ILS (Increase Life Span) (p-388 leukemia cells [3]; 400 mg/kg/day oral): 32%; ILS at 100 mg/kg (p-388 leukemia cells [1]): 111% |
| O=C(NC(=O)c1ccccc1[N+](=O)[O-])Nc1ccc(Oc2ccc(Br)nn2)c(F)c1 [Compound No. 9, N-(2-nitrobenzoyl)-N'-[4-(6-bromo-3-pyridazinyloxy)-3-fluorophenyl]urea] | ≥ 100 |  | ILS (Increase Life Span) (p-388 leukemia cells [3]; 200 mg/kg/day oral): 52%; ILS at 100 mg/kg (p-388 leukemia cells [1]): 90% |
| O=C(NC(=O)c1ccccc1[N+](=O)[O-])Nc1ccc(Oc2ccc(Cl)nn2)c(C(F)(F)F)c1 [Compound No. 8, N-(2-nitrobenzoyl)-N'-[4-(6-chloro-3-pyridazinyloxy)-3-trifluoromethylphenyl]urea] | ≥ 50 |  | ILS at 100 mg/kg (p-388 leukemia cells [1]; [4]): 75% |
